For orientation: IC50 means the concentration at which inhibition is half-maximal. Low values mean inhibition by little substance, high ones a need for much substance. For orientation: Ki means a dissociation constant, usually derived from enzyme kinetics or from competition with a known ligand. The AUC is concentration integrated over time. A word on the Cmax: it is the highest concentration seen after dosing. One may read the Tmax as the time from dosing to the highest level.

The text below walks through data of patent publication EP0427799B1, “METHOD AND COMPOUNDS FOR AICA RIBOSIDE DELIVERY AND FOR LOWERING BLOOD GLUCOSE” (GENSIA, INC., priority 1989, dated 1990).

Series [1] has as its target T1, FDPase (Mus musculus, UniProt Q9QXD6).
T1 construct: Liver samples (from the indicated species) were homogenized; from tissue; host or cells: mouse liver homogenate, 45,000 x g supernatant passed over Sephadex G25
Put plainly: Inhibition of liver FDPase by ZMP (IC50). It is filed as biochemical. As to conditions: Mouse liver homogenate supernatant. Here is the method:
(§1) Liver samples (from the indicated species) were homogenized in 20 mM potassium phosphate buffer (pH 7.4) with 100 µM EDTA and 100 µM dithiothreitol. The liver homogenates were centrifuged at 45,000 x/g. The supernatants were passed over a sephadex G25 column and assayed for FDPase activity by the method of Marcus et al (Methods in Enzymology 90: 352-356 (1982)) in the presence of ZMP over a range of concentration and in the absence of ZMP. The IC50 value was defined as the concentration of ZMP, which inhibited 50 percent of the baseline FDPase activity under the assay conditions.

For series [2], the target named is T2, FDPase (Oryctolagus cuniculus, UniProt P00637).
T2 construct: Liver samples (from the indicated species) were homogenized; from tissue; host or cells: rabbit liver homogenate, 45,000 x g supernatant passed over Sephadex G25
T2 sequence (P00637 2-338 limits assumed): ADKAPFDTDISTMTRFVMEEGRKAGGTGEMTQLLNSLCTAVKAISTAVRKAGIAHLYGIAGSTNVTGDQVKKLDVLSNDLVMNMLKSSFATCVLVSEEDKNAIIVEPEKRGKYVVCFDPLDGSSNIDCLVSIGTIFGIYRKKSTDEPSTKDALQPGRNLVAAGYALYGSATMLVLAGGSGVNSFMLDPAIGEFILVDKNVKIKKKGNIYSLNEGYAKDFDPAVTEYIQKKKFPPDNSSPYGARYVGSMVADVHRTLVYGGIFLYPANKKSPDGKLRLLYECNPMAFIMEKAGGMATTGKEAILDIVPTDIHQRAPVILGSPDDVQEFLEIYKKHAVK
As to the kind of experiment: Inhibition of liver FDPase by ZMP (IC50). As to conditions: Rabbit liver homogenate supernatant. It is filed as biochemical. The procedure: as §1

Series [3] addresses FDPase. Put plainly: Inhibition of liver FDPase by ZMP (IC50). It is filed as biochemical. The procedure: as §1
The target of series [4] is T3, FDPase (Homo sapiens, UniProt P09467).
T3 construct: Liver samples (from the indicated species) were homogenized; from tissue; host or cells: human liver homogenate, 45,000 x g supernatant passed over Sephadex G25
T3 sequence (P09467 2-338 limits assumed): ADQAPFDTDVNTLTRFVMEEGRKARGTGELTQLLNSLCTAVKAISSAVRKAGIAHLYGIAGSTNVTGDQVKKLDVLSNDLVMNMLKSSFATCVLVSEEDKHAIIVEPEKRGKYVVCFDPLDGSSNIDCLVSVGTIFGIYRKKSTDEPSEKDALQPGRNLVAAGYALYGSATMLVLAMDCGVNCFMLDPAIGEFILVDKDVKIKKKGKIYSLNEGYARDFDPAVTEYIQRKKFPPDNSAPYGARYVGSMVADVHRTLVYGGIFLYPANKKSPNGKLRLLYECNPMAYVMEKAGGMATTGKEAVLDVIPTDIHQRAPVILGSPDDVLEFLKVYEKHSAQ
As to the kind of experiment: Inhibition of liver FDPase by ZMP (IC50). It is filed as biochemical. As to conditions: Human liver homogenate supernatant. Here is the method: as §1

Series [5] concerns the target T4, FDPase (Rattus norvegicus, UniProt P19112).
T4 construct: Liver samples (from the indicated species) were homogenized; from tissue; host or cells: rat liver homogenate, 45,000 x g supernatant passed over Sephadex G25
Put plainly: Inhibition of liver FDPase by ZMP (IC50). It is filed as biochemical. As to conditions: Rat liver homogenate supernatant. The procedure: as §1

The target of series [6] is T5, fructose diphosphatase ("FDPase") (Oryctolagus cuniculus, UniProt P00637).
T5 construct: fructose -1,6- diphosphatase from rabbit liver (Sigma); purchased Sigma; host or cells: rabbit liver (enzyme isolated from tissue)
T5 sequence (P00637 2-338 limits assumed): as the sequence (P00637 2-338 limits assumed) above
Put plainly: Inhibition of fructose-1,6-diphosphatase from rabbit liver. It is filed as biochemical. An excerpt:
Activity was expressed as a velocity (rate of conversion of substrate).

The next series deals with plasma glucose. Put plainly: Plasma glucose after adenosine and adenosine receptor agonists I.P. It is filed as in vivo. Conditions: administered I.P. in either rats or mice. An excerpt:
This leads to investigation of the mechanism of AICA riboside induced hypoglycemia. […] This adenosine induced hyperglycemia is reversed by adenosine receptor antagonists (theophylline and sulphophenyltheophylline). Additionally, the AICA riboside-induced hypoglycemia is not blocked by theophylline. It is therefore concluded that the AICA riboside effect on plasma glucose is not mediated by adenosine. […] (See Figure 13).

The subject of a further series is blood glucose. As to conditions: several animal species, including man; cited from earlier work.
The target in a further series is adenosine kinase (Homo sapiens, UniProt P55263). Put plainly: Inhibition of adenosine kinase. It is filed as biochemical.
adenosine kinase, sequence (P55263 whole entry, species assumed): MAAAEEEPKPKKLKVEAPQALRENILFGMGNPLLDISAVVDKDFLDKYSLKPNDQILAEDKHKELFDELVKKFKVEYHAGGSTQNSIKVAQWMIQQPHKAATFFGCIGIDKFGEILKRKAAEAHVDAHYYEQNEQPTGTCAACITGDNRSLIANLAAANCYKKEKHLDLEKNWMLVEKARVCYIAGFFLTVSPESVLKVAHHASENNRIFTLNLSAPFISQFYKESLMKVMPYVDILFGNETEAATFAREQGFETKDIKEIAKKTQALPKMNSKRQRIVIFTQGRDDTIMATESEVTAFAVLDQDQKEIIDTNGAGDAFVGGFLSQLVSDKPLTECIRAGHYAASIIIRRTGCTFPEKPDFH
A short description of series [7]: Enhanced oral bioavailability: tissue ZMP levels after gavage. It is filed as in vivo, Sprague-Dawley rats. Here is the method:
AICA riboside was administered to Sprague-Dawley rats at a dose of 250 mg/kg or 500 mg/kg, prodrug compounds of the present invention were administered at an equal molar dose.
At 15, 30, 60 and 120 minutes after gavage, the animals were sacrificed. The tissues were obtained and frozen immediately for nucleoside and nucleotide analysis. The tissue samples obtained were liver, heart, brain and whole blood. After initial freezing in liquid nitrogen, the tissue samples were extracted with trichloroacetic acid and neutralized with alamine freon. The tissue samples were evaluated by HPLC on a Whatman Partsil-10 (SAX) column for nucleosides and bases as described in Example 6. […] Tests were run with 8 rats.
Figures 5(a) and (b) show ZMP concentrations in rat liver at doses of a molar equivalent of 250 mg/kg and 500 mg/kg AICA riboside.

For a further series, the system named is ischemic heart tissue. As to the kind of experiment: Adenosine, AICA riboside and ZMP levels in ischemic heart tissue. It is filed as in vivo, rats. As to conditions: for adenosine concentrations during net ATP breakdown: rat heart ischemia model. Here is the method:
Prodrug compounds of the present invention and AICA riboside were tested for their activity in enhancing the production of adenosine and increasing production of AICA riboside from ZMP in ischemic heart tissue in rats.
Samples of heart tissue after ischemia were analyzed for nucleoside and nucleotide levels. Samples were measured for adenosine, AICA riboside and ZMP concentrations by HPLC.

The next series relates to HTL-induced seizures. Put plainly: Inhibition of HTL-induced seizures. It is filed as in vivo. As to conditions: mice. Here is the method:
Compounds were tested for their activities in inhibiting HTL-induced seizures in rats.
Animals used were male Swiss Webster mice weighing 21-30 grams (Charles River Breeding Labs, Wilmington, MA). All animals were adapted to the laboratory for at least 5 days prior to use.
All solutions to be injected were prepared as a single injection cocktail at a concentration such that 1 ml per 100 g of body weight yielded the desired dose. The solutions were compounded as follows: Homocysteine Thiolactone - HCl (HTL-HCl) (Sigma Chemical Company, St. Louis, MO) was dissolved in distilled water and the pH adjusted to 6.7 with NaOH. Pentylenetetrazol (PTZ) was dissolved in 0.9% saline. Prodrug compounds or AICA riboside (Sigma) when used alone was dissolved in distilled water. All solutions containing Mioflazine (Janssen Pharmaceuticals) were prepared at a final DMSO concentration of 10-15% as were the Dipyridamole (Sigma) solutions. N-ethylcarboxamide adenosine, NECA (Sigma) and Flunitrazepam (Hoffman La Roche) injections were prepared in a final ethanol concentration of 0.2%. In all cases carrier control solutions of carrier were injected that were matched for both tonicity and solvents to the test solutions. All test and control solutions were injected via a bolus, I.P., using a 27 gauge needle. HTL and PTZ were injected subcutaneously in the upper back of the animal. […]

In a further series the test system is cell culture. Put plainly: Adenosine concentrations in cell culture during net ATP breakdown. It is filed as cell-based. From the text: (§2) We have expanded this work on AICA riboside and S-AICA riboside homocysteine to examine other known adenosine kinase inhibitors as adenosine releasing agents. The flux (substrate made into product per unit of time), through adenosine kinase under physiological conditions is low; substrate metabolism is low partly due to low substrate availability. However, during net ATP catabolism, substrate availability (i.e. adenosine concentration) dramatically increases. […] (See Figure 15).

A short description of a further series: in vivo. Also noted: species or system dogs. As to conditions: dog; for AUC / Cmax / Tmax: po. Here is the method: The bioavailability of AICA riboside after oral administration of either AICA riboside or one of the AICA riboside prodrugs of the present invention was evaluated in dogs. Plasma concentrations of AICA riboside and intact prodrug were measured using HPLC. (See Dixon, R., et al., Res. Commun. Chem. Path. Pharm. 65:405-408 (1989)). Bioavailability of AICA riboside was evaluated in terms of the time required to reach maximum plasma concentration (Tmax), the maximum concentration achieved (Cmax) and the area under the plasma concentration-time curve (AUC) from time zero to the last measurable plasma concentration. Absolute bioavailability (F%) was calculated by dividing the AUC for AICA riboside following oral administration of the prodrug (or AICA riboside itself) by the AUC following intravenous administration of an equivalent amount of AICA riboside (100% bioavailability).

Series [8] in a line: Blood pressure and heart rate in rats. It is filed as in vivo.
Text: as §2

The subject of another series is PTZ induced seizures. As to the kind of experiment: Inhibition of PTZ-induced seizures. It is filed as in vivo. As to conditions: mice. The procedure: All solutions to be injected were prepared as a single injection cocktail at a concentration such that 1 ml per 100 g of body weight yielded the desired dose. The solutions were compounded as follows: Homocysteine Thiolactone - HCl (HTL-HCl) (Sigma Chemical Company, St. Louis, MO) was dissolved in distilled water and the pH adjusted to 6.7 with NaOH. Pentylenetetrazol (PTZ) was dissolved in 0.9% saline. Prodrug compounds or AICA riboside (Sigma) when used alone was dissolved in distilled water. All solutions containing Mioflazine (Janssen Pharmaceuticals) were prepared at a final DMSO concentration of 10-15% as were the Dipyridamole (Sigma) solutions. N-ethylcarboxamide adenosine, NECA (Sigma) and Flunitrazepam (Hoffman La Roche) injections were prepared in a final ethanol concentration of 0.2%. In all cases carrier control solutions of carrier were injected that were matched for both tonicity and solvents to the test solutions. All test and control solutions were injected via a bolus, I.P., using a 27 gauge needle. HTL and PTZ were injected subcutaneously in the upper back of the animal.
Animals were preinjected with either control solution containing only carrier or test solution containing candidate compound (prodrug or AICA riboside) and carrier in groups of 6-8 per test solution or control. […]

T1 sequence (Q9QXD6 2-338 limits assumed): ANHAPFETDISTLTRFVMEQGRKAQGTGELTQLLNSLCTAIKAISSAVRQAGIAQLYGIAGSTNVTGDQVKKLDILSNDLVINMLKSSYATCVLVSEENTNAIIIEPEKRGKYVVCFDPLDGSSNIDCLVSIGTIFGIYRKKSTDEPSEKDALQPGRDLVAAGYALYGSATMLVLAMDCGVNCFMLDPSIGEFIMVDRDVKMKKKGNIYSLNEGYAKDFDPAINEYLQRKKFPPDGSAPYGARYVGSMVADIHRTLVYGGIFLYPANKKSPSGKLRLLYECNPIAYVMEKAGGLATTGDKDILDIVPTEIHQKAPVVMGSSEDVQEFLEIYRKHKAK
T4 sequence (P19112 2-363 limits assumed): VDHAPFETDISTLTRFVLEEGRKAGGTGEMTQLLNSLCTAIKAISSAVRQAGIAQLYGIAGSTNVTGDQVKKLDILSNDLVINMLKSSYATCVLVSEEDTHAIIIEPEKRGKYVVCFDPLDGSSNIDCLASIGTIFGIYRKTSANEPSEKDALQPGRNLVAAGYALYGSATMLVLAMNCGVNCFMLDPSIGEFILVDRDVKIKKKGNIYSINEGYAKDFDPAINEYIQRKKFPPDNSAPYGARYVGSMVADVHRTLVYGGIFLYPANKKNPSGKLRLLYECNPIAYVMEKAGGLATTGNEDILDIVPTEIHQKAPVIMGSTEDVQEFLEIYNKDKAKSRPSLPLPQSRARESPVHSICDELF

Consider `NC(=O)c1ncn([C@@H]2O[C@H](COP(=O)(O)O)[C@@H](O)[C@H]2O)c1N` [ZMP, AICA riboside-5'-monophosphate], for which the IC50 came out at 150 µM against FDPase [1]; 41 µM at FDPase [2]; 50 µM against FDPase [3] (Gerbil liver homogenate supernatant); 12 µM at FDPase [3] (Guinea Pig liver homogenate supernatant); 48 µM on FDPase [4]; 375 µM at FDPase [5]. The same compound had a Ki in series [6] of around 40 µM.

In the case of `OC[C@H]1O[C@@H](n2cnc3c(NC4CCCCC4)ncnc32)[C@H](O)[C@@H]1O` [cyclohexyladenosine], in the series with plasma glucose, the “increases in plasma glucose (hyperglycemia)” value (shortened to “increases in plasma glucose”) is on record as 200-300%.

For `O=C[C@H](O)[C@H](O)[C@H](O)CO` [Ribose], the “dose lowering blood glucose” value in the series on blood glucose was “about 1000 mg/kg”.

Take `NC(=O)c1ncn(C2OC(CSCCC(N)C(=O)O)C(O)C2O)c1N` (stereo not shown) [S-AICA riboside homocysteine, S-AICA ribosyl homocysteine]: the “inhibition of adenosine kinase” value at adenosine kinase is listed as “more potent”.

Turning to `CCNC(=O)[C@H]1O[C@@H](n2cnc3c(N)ncnc32)[C@H](O)[C@@H]1O` [N-ethylcarboxamide adenosine], the “increases in plasma glucose” value in the series with plasma glucose is recorded as 200-300%.

As for `CC(C)COC(=O)O[C@H]1[C@@H](O)[C@H](n2cnc(C(N)=O)c2N)O[C@@H]1CO` [Prodrug A, 5-amino-3'-(2-methyl-1-propoxycarbonyl)-1-β-D-ribofuranosyl-imidazole-4-carboxamideie], the “ZMP accumulation in the liver relative to AICA riboside” value in series [7] (after an equimolar gavage) is recorded as 5 times. In series [7] (rats, gavage, dose equimolar to AICA riboside), the “oral bioavailability as evidenced by ZMP levels in liver, whole blood and heart” value was “increased oral bioavailability”. For the same compound, the “potency in enhancing adenosine production relative to AICA riboside” value in the series with ischemic heart tissue (ischemic heart model, molar basis) is listed as “about 30%”. Moreover, the “Tissue Concentration Adenosine” value in the series with ischemic heart tissue (ischemic rat heart tissue, Prodrug A at dose equimolar to AICA riboside) was found to be 553 ± 46 nmol/g. Moreover, in the series with ischemic heart tissue (ischemic rat heart tissue, equimolar doses), the “Tissue Concentration AICA Riboside” value is 592 ± 55 nmol/g. Further, the “activity against HTL-induced seizures” value in the series on HTL-induced seizures is “improved anticonvulsant activity”.

On to `Nc1ncnc2c1c(I)cn2[C@@H]1O[C@H](CO)[C@@H](O)[C@H]1O` [5-iodotubercidin], for which the “adenosine concentrations during net ATP breakdown” value in the series with cell culture and with ischemic heart tissue was “increased adenosine concentrations” in each case.

As to `CC(=O)OC[C@H]1O[C@@H](n2cnc(C(N)=O)c2N)[C@H](OC(C)=O)[C@@H]1OC(C)=O` [Compound C1, 2',3',5'-triacetyl AICA riboside], in the series “in vivo”, the F is 39%, the exposure (AUC) stood at 3200 ng·h/mL, the Cmax worked out at 2200 ng/mL and the Tmax is 1.5 h.

In the case of `CC(C)C(=O)OC[C@H]1O[C@@H](n2cnc(C(N)=O)c2N)[C@H](O)[C@@H]1O` [Compound 10, 5'-isobutyryl-AICA riboside], in the series “in vivo”, the F is 60%, the AUC came out at 4900 ng·h/mL, the Cmax is 5000 ng/mL and the Tmax stood at 0.75 h.

`NC[C@H]1O[C@@H](n2cnc3c(N)ncnc32)[C@H](O)[C@@H]1O` [5'-amino-5'-deoxyadenosine]: the “adenosine concentrations during net ATP breakdown” value in the series on cell culture and in the series with ischemic heart tissue was “increased adenosine concentrations” each time. Further, the “changes in blood pressure or heart rate” value in series [8] is on record as “did not produce any significant changes in blood pressure or heart rate”. Moreover, the “activity against HTL-induced seizures” value with HTL-induced seizures is “observed to prevent HTL-induced seizure”. Also, the “activity against PTZ induced seizures” value in the series on PTZ induced seizures was “effective in blocking pentylene-tetrazole (PTZ) induced seizures”.

`CC(C)(C)C(=O)OC[C@H]1O[C@@H](n2cnc(C(N)=O)c2N)[C@H](O)[C@@H]1O` [Compound 11, 5'-pivalyl-AICA riboside]: in the series “in vivo”, the F is given as 44%, the AUC came to 3700 ng·h/mL, the Cmax is 3200 ng/mL and the Tmax was 1.0 h.

For the compound `Nc1ncnc2c1ncn2[C@@H]1O[C@H](CO)[C@@H](O)[C@H]1O` [adenosine, 9-β-D-ribofuranosyladenine], the “increases in plasma glucose” value in the series with plasma glucose is 200-300%.
